Source: PMC4467398, “Preclinical antitumor activity of ST7612AA1: a new oral thiol-based histone deacetylase (HDAC) inhibitor” (Oncotarget, 2014)

System: DOHH2 and TMD8 DLBCL cells
Assay: Gene expression profiling (HumanHT-12 v4 BeadChip, limma), ST7612AA1 300 nM 8 hrs vs DMSO
Type: cell-based, human
Settings: 300 nM 8 hrs vs DMSO

## CC(=O)SCCCCC[C@H](NC(=O)[C@H]1CCC(=O)N1)C(=O)Nc1ccccc1 [ST7612AA1]
  log ratio POGK (ILMN_1756669): -8.84E-01
  log ratio POLR1C (ILMN_1746686): -8.40E-01
  log ratio PPP1R13B (ILMN_1748831): 6.43E-01
  log ratio PPP2R1A (ILMN_1810467): -5.99E-01
  log ratio PPRC1 (ILMN_1796210): -1.03E+00
  log ratio PRDM10 (ILMN_2352293): -8.83E-01
  log ratio PRDX2 (probe ILMN_1767766): 8.35E-01
  log ratio PRDX2 (probe ILMN_2382829): 7.41E-01
  log ratio PRKAR1B (ILMN_1674390): -8.76E-01
  log ratio PRKCB1 (ILMN_1806908): 6.12E-01
  log ratio PRMT3 (ILMN_1662964): -1.23E+00
  log ratio PSMB5 (ILMN_1744649): -9.34E-01
  log ratio PSMB10 (ILMN_1683026): -8.38E-01
  log ratio PSMG4 (ILMN_3224204): -5.99E-01
  log ratio PTGER4 (probe ILMN_1795930): 9.03E-01
  log ratio PTMS (ILMN_1721046): 6.73E-01
  log ratio PTPN7 (ILMN_1715214): -6.16E-01
  log ratio PTS (ILMN_2162328): -8.08E-01
  log ratio PTTG1 (probe ILMN_1753196): 6.92E-01
  log ratio PTTG1IP (ILMN_1802251): 6.45E-01
  log ratio PTTG1IP (ILMN_2128750): 6.16E-01
  log ratio PTTG3P (ILMN_2049021): 6.08E-01
  log ratio QTRTD1 (ILMN_2155516): -7.99E-01
  log ratio RAB8B (probe ILMN_2173004): 8.71E-01
  log ratio RAB11FIP2 (ILMN_2072541): -5.92E-01
  log ratio RAB11FIP5 (ILMN_1740604): 6.69E-01
  log ratio RAB24 (probe ILMN_2379718): 7.77E-01
  log ratio RABEPK (ILMN_1741957): -9.81E-01
  log ratio RABGAP1 (probe ILMN_2061950): 6.86E-01
  log ratio RAD9A (ILMN_1684183): 6.33E-01
  log ratio RAN (ILMN_1757384): -8.66E-01
  log ratio RAPGEF2 (probe ILMN_3247261): 8.54E-01
  log ratio RASAL1 (probe ILMN_1793517): 7.10E-01
  log ratio RASD2 (probe ILMN_2170209): 7.75E-01
  log ratio RASGRP3 (ILMN_1727045): -9.48E-01
  log ratio RASL10A (ILMN_1747673): 6.25E-01
  log ratio RASSF2 (ILMN_1709683): -8.05E-01
  log ratio RBM23 (ILMN_1780756): -8.92E-01
  log ratio RBM23 (ILMN_2363106): -9.17E-01
  log ratio RBM38 (ILMN_2404049): 6.27E-01
  log ratio RCAN1 (ILMN_2367239): 6.08E-01
  log ratio RCC2 (ILMN_1720124): -8.76E-01
  log ratio REEP2 (probe ILMN_1666057): 6.85E-01
  log ratio RFC1 (probe ILMN_2217935): 7.23E-01
  log ratio RGS19 (ILMN_1677085): -9.37E-01
  log ratio RHBDD2 (probe ILMN_1809437): 7.80E-01
  log ratio RHBDD2 (probe ILMN_2406410): 8.04E-01
  log ratio RHOBTB3 (probe ILMN_1744949): 8.25E-01
  log ratio RHOC (probe ILMN_1673305): 9.02E-01
  log ratio RIOK3 (ILMN_2404135): 5.99E-01
  log ratio RNASE4 (probe ILMN_1776602): 7.33E-01
  log ratio RND2 (probe ILMN_1736533): 7.06E-01
  log ratio RNF24 (probe ILMN_1717809): 7.24E-01
  log ratio RNF135 (ILMN_1700660): -6.19E-01
  log ratio RNFT2 (ILMN_3299905): 6.00E-01
  log ratio RPIA (ILMN_1714809): -9.23E-01
  log ratio RPL29 (ILMN_1737517): -1.05E+00
  log ratio RPL29 (ILMN_1771051): -1.03E+00
  log ratio RPL36A (ILMN_2112811): -6.12E-01
  log ratio RPP40 (ILMN_1810423): -1.07E+00
  log ratio RPRD2 (ILMN_3238889): -7.98E-01
  log ratio RPS6KA4 (ILMN_1756204): -7.98E-01
  log ratio RRBP1 (ILMN_2360784): 6.39E-01
  log ratio RRS1 (ILMN_1767658): -7.92E-01
  log ratio RTN2 (probe ILMN_1749115): 8.60E-01
  log ratio RTN3 (probe ILMN_2363065): 7.08E-01
  log ratio S100A4 (ILMN_1688780): 6.50E-01
  log ratio SALL2 (ILMN_1740842): 6.64E-01
  log ratio SBK1 (probe ILMN_1728298): 8.80E-01
  log ratio SCARNA11 (probe ILMN_3236010): 6.95E-01
  log ratio SCARNA13 (probe ILMN_3235325): 7.18E-01
  log ratio SCARNA14 (probe ILMN_3247636): 7.31E-01
  log ratio SCARNA23 (ILMN_3243966): 6.49E-01
  log ratio SCD5 (ILMN_2237428): 6.35E-01
  log ratio SDCBP (probe ILMN_2363586): 8.86E-01
  log ratio SDCBP (probe ILMN_2363591): 8.22E-01
  log ratio SDHA (ILMN_1744210): 6.20E-01
  log ratio SDHAP2 (probe ILMN_3248781): 7.07E-01
  log ratio SEMA4D (probe ILMN_1687533): 7.86E-01
  log ratio SEMA4F (probe ILMN_1805007): 7.51E-01
  log ratio SENP6 (ILMN_2054233): -8.91E-01
  log ratio SEPHS1 (ILMN_1673369): -1.31E+00
  log ratio SEPHS1 (ILMN_2176768): -1.36E+00
  log ratio SEPHS2 (ILMN_1687824): 6.78E-01
  log ratio SERPINB9 (probe ILMN_1742052): 7.55E-01
  log ratio SERPINI1 (probe ILMN_1814333): 7.79E-01
  log ratio SESN1 (ILMN_1800626): 5.92E-01
  log ratio SETMAR (ILMN_1682404): -7.84E-01
  log ratio SFRS7 (ILMN_1778836): -6.07E-01
  log ratio SFXN4 (ILMN_2363361): -9.20E-01
  log ratio SGK (probe ILMN_1702487): 8.82E-01
  log ratio SGSH (ILMN_2133675): 5.92E-01
  log ratio SH3GLB2 (probe ILMN_2158336): 6.85E-01
  log ratio SLC5A6 (ILMN_1741054): -9.72E-01
  log ratio SLC7A1 (ILMN_1683859): -6.20E-01
  log ratio SLC23A2 (probe ILMN_1746578): 7.82E-01
  log ratio SLC25A4 (probe ILMN_1681670): 8.53E-01
  log ratio SLC25A4 (probe ILMN_2211780): 7.98E-01
  log ratio SLC25A13 (ILMN_1668012): -8.15E-01
  log ratio SLC25A23 (probe ILMN_1679949): 7.04E-01
  log ratio SLC35F2 (ILMN_2075189): -9.03E-01
  log ratio SLC38A1 (ILMN_1769911): -9.30E-01
  log ratio SLC38A5 (ILMN_1695058): -1.13E+00
  log ratio SLC39A3 (ILMN_2234970): 6.58E-01
  log ratio SLC39A10 (ILMN_1656129): -5.93E-01
  log ratio SLC43A3 (ILMN_1658407): -9.67E-01
  log ratio SLC43A3 (ILMN_2330307): -8.92E-01
  log ratio SLC44A2 (probe ILMN_1771987): 7.92E-01
  log ratio SLC45A3 (probe ILMN_1726114): 7.11E-01
  log ratio SLFN11 (ILMN_2162860): 6.41E-01
  log ratio SLFN11 (probe ILMN_1752520): 7.62E-01
  log ratio SLTM (ILMN_1742224): -9.17E-01
  log ratio SLTM (ILMN_2395204): -8.02E-01
  log ratio SMG5 (ILMN_2126239): -9.35E-01
  log ratio SNAP23 (probe ILMN_1687519): 8.74E-01
  log ratio SNHG3-RCC1 (ILMN_1707493): -9.37E-01
  log ratio SNORA76 (ILMN_3237562): -5.92E-01
  log ratio SNORA80 (ILMN_3238554): 6.42E-01
  log ratio SNORD31 (probe ILMN_2072391): 7.85E-01
  log ratio SNORD65 (ILMN_3246353): -8.36E-01
  log ratio SNUPN (ILMN_1733932): -7.98E-01
  log ratio SNUPN (ILMN_2364535): -8.42E-01
  log ratio SNX29 (ILMN_1659761): 6.78E-01
  log ratio SORT1 (probe ILMN_1707077): 8.42E-01
  log ratio SPAG1 (ILMN_2367681): 5.96E-01
  log ratio SPAG7 (ILMN_1684446): -8.14E-01
  log ratio SPAG9 (ILMN_1799104): 6.26E-01
  log ratio SPAG9 (probe ILMN_2263718): 7.33E-01
  log ratio SPI1 (ILMN_2392043): -6.03E-01
  log ratio SPINT2 (probe ILMN_1800739): 8.11E-01
  log ratio SPRY1 (ILMN_2329914): 6.03E-01
  log ratio SREBF1 (probe ILMN_1663035): 7.22E-01
  log ratio SRGN (probe ILMN_1760347): 7.62E-01
  log ratio SRGN (probe ILMN_2169152): 7.60E-01
  log ratio SRP72 (ILMN_1683888): -5.90E-01
  log ratio SSPN (ILMN_1775486): -1.34E+00
  log ratio STAG2 (ILMN_1782609): -9.17E-01
  log ratio STARD10 (probe ILMN_1717052): 8.01E-01
  log ratio STK17B (probe ILMN_1798543): 7.91E-01
  log ratio STMN3 (probe ILMN_3244117): 9.01E-01
  log ratio STX3 (probe ILMN_1659544): 8.71E-01
  log ratio SUMO3 (ILMN_1725642): -9.81E-01
  log ratio SUSD3 (probe ILMN_1785570): 8.58E-01
  log ratio SYNGR1 (ILMN_1810875): 6.25E-01
  log ratio TACC1 (probe ILMN_1770084): 7.64E-01
  log ratio TACO1 (ILMN_1685112): -6.19E-01
  log ratio TADA1L (ILMN_1776487): -6.14E-01
  log ratio TANK (probe ILMN_1715069): 8.21E-01
  log ratio TBC1D7 (probe ILMN_1661622): 7.33E-01
  log ratio TBC1D16 (probe ILMN_1758457): 7.24E-01
